Test results reported in patent US7608631B2, “4-(3,3-dihalo-allyloxy) phenol derivatives having pesticidal properties” (Syngenta Crop Protection, Inc., priority 2002, dated 2009).

Tests used:
Assay type in all cases: in vivo
[1] = system: Heliothis virescens; assay: Action against Heliothis virescens caterpillars (sprayed soybean plants); details: 144 h, 400 ppm spray on young soybean plants, 10 caterpillars in the first stage, evaluation 6 days later, read-out: percentage reduction in population and percentage reduction in feeding damage (% activity)
Experimental: (§1) Young soybean plants are sprayed with an aqueous emulsion spray mixture comprising 400 ppm of test compound. After the spray-coating has dried, the soybean plants are populated with 10 caterpillars of Heliothis virescens in the first stage and placed in a plastics container. Evaluation is made 6 days later. The percentage reduction in population and the percentage reduction in feeding damage (% activity) are determined by comparing the number of dead caterpillars and the feeding damage on the treated plants with that on the untreated plants.

[2] = system: Spodoptera littoralis; assay: Action against Spodoptera littoralis (sprayed soybean plants); details: 72 h, 400 ppm spray on young soybean plants, 10 caterpillars in the first stage, 3 days later, read-out: percentage reduction in population and percentage reduction in feeding damage (% activity)
Experimental: Young soybean plants are sprayed with an aqueous emulsion spray mixture comprising 400 ppm of test compound and, after the spray-coating has dried, the plants are populated with 10 caterpillars of Spodoptera littoralis in the first stage and then placed in a plastics container. 3 days later, the percentage reduction in population and the percentage reduction in feeding damage (% activity) are determined by comparing the number of dead caterpillars and the feeding damage on the treated plants with that on untreated plants.

[3] = system: Plutella xylostella; assay: Action against Plutella xylostella caterpillars (sprayed cabbage plants); details: 72 h, 400 ppm spray on young cabbage plants, 10 caterpillars in the third stage, evaluation 3 days later, read-out: percentage reduction in population and percentage reduction in feeding damage (% activity)
Experimental: as §1, with “cabbage” for “soybean”, “Plutella xylostella” for “Heliothis virescens”, “third” for “first”, “3” for “6”

Measured: inhibition at 400 ppm

CCn1nnc(-c2ccc(OCCCOc3c(Cl)cc(OCC=C(Cl)Cl)cc3Cl)cc2)n1 [Compound 1.4, 5-(4-{3-[2,6-dichloro-4-(3,3-dichloro-allyloxy)-phenoxy]-propoxy}-phenyl)-2-ethyl-2H-tetrazole]
> 80%: all assays above

ClC(Cl)=CCOc1cc(Cl)c(OCCCOc2ccc(-c3noc(Cl)n3)cc2)c(Cl)c1 [Compound 1.16, 5-chloro-3-(4-{3-[2,6-dichloro-4-(3,3-dichloro-allyloxy)-phenoxy]-propoxy}-phenyl)-[1,2,4]oxadiazole]
> 80%: all assays above

ClC(Cl)=CCOc1cc(Cl)c(OCCCOc2ccc(-c3cc(Cl)on3)cc2)c(Cl)c1 [Compound 1.17, 5-chloro-3-(4-{3-[2,6-dichloro-4-(3,3-dichloro-allyloxy)-phenoxy]-propoxy}-phenyl)-isoxazole]
> 80%: all assays above
